{"source": "patent US4713369A", "about": "“Oligopeptidylargininol derivatives and their homologs, a process for their preparation, their use and agents containing them” (Behringwerke Aktiengellschaft, priority 1985, dated 1987)", "key": {"[1]": {"molecular_target": "human α-thrombin (Homo sapiens, UniProt P00734)", "procedure": "Test procedure: 700 μl of tris buffer, pH 8.2, are incubated with 100 μl of human α-thrombin (0.28 UI) and 100 μl of inhibitor solution at 37° C. for 5 min. After addition of 100 μl of Tos-Gly-Pip-Arg paranitroanilide (c×3 mMol/l), the extinction at 405 nm is measured."}, "[2]": {"molecular_target": "F Xa (Homo sapiens, UniProt P00742)", "sequence (P00742 235-488 limits assumed)": "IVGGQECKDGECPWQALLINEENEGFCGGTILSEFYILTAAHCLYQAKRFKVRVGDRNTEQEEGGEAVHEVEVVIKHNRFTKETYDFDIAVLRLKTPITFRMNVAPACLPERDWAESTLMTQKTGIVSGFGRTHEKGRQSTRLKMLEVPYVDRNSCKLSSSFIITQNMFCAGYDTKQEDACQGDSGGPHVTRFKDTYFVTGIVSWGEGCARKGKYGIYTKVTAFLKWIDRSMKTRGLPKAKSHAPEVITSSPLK", "sequence (P00742 41-179 partner limits assumed)": "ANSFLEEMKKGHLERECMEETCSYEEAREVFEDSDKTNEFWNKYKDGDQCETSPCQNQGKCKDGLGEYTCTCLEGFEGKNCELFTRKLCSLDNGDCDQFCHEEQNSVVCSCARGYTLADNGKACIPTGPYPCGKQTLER", "assay": "Inhibitory action against F Xa, analogous procedure (substrate Bzl-Ile-Glu-Gly-Arg pNA)", "assay_type": "biochemical", "conditions": "final inhibitor concentration 0.6 mmol/1", "from_the_text": "F Xa substrate: Bzl-Ile-Glu-Gly-Arg pNA (50% of the Glu as the methyl ester) (c=3 mmol/liter)"}, "[3]": {"molecular_target": "plasmin (Homo sapiens, UniProt P00747)", "sequence (P00747 581-810 limits assumed, species assumed)": "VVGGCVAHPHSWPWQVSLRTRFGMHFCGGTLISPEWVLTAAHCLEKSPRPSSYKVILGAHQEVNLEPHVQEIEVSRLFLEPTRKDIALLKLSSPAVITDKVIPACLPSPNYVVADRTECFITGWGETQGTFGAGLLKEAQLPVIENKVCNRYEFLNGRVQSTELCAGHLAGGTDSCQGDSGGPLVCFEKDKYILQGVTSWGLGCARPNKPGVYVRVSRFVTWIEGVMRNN", "sequence (P00747 97-580 partner limits assumed, species assumed)": "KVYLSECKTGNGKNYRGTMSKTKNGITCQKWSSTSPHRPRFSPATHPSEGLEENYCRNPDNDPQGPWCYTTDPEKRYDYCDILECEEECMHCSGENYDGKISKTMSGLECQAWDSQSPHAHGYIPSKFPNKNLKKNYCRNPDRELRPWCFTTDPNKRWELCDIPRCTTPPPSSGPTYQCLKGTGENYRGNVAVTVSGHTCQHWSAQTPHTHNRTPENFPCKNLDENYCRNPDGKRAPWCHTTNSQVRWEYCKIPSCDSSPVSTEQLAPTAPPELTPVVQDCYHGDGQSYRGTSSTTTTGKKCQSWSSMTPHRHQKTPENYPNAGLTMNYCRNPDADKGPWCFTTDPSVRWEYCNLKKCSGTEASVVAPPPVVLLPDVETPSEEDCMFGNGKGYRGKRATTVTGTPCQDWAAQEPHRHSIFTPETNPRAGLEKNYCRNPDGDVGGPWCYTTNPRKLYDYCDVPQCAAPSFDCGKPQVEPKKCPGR", "assay": "Inhibitory action against plasmin, analogous procedure (substrate D-norvalylcyclohexylalanylarginyl paranitroanilide)", "assay_type": "biochemical", "conditions": "final inhibitor concentration 0.6 mmol/1", "from_the_text": "(plasmin substrate: D-norvalylcyclohexylalanylarginyl paranitroanilide (c=3 mmol/l))."}, "[4]": {"system": "spermatozoal endoprotease acrosin", "conditions": "results of Borin et al., Hoppe-Seyler's Z. Physiol. Chem. 362, 1435-1445, 1981; cited from earlier work"}}, "note": "Like-named read-outs stand apart in the source and are kept apart here.", "data": [{"smiles": "CC(C)(C)OC(=O)N[C@H](Cc1ccccc1)C(=O)N1CCC[C@H]1C(=O)N[C@H](CO)CCCNC(=N)N", "note": "[Boc-D-Phe-Pro-Arg CH2 --OH]", "values": [{"measurement": "action in the thrombin inhibition test, times less than that of H-D-Phe-Pro-Arg CH2 --OH", "setting": "[1]; relative to H-D-Phe-Pro-Arg CH2 --OH", "result": "about 1,000 times"}]}, {"smiles": "N=C(N)NCCCCCC(=O)Oc1ccc(CCC(=O)O)cc1", "note": "[4-carboxyethylphenyl ε-guanidinocaproate, reference compound]", "values": [{"measurement": "IC50", "setting": "[1]", "result": "3.65 ± 0.05", "unit": "µM"}]}, {"smiles": "Cl.Cl.NC(N)=NCCC[C@@H](COC(=O)c1ccc([N+](=O)[O-])cc1)NC(=O)[C@@H]1CCCN1C(=O)[C@H](N)Cc1ccccc1", "note": "[D-Phe-Pro-argininol-4-nitrobenzoate dihydrochloride]", "values": [{"measurement": "inhibitory action on thrombin (in words)", "setting": "[1]", "result": "approximately corresponded to that of 4-carboxyethylphenylε-guanidinocaproate"}]}, {"smiles": "N=C(N)NCCC[C@@H](CO)NC(=O)[C@@H]1CCCN1C(=O)[C@H](N)Cc1ccccc1.O=C(O)C(F)(F)F.O=C(O)C(F)(F)F", "note": "[D-Phe-Pro-argininol ditrifluoroacetate, D-Phe-Pro-Arg-CH2 OH×2CF3 COOH]", "values": [{"measurement": "F X a inhibition", "setting": "[2]", "result": 49, "unit": "% inhibition"}, {"measurement": "Plasmin inhibition", "setting": "[3]", "result": 67, "unit": "% inhibition"}, {"measurement": "inhibitory action on thrombin (in words)", "setting": "[1]", "result": "potent inhibition of thrombin"}, {"measurement": "inhibitory action on thrombin (in words)", "setting": "[1]; listed as D-phenylalanyl-L-prolyl-L-argininol", "result": "especially strong"}]}, {"smiles": "CC(=O)O.CC(C)C[C@H](NC(=O)OC(C)(C)C)C(=O)N[C@@H](CC(C)C)C(=O)N[C@H](C=O)CCCNC(=N)N.O", "note": "[Boc-Leu-Leu-argininal . acetic acid . H2 O]", "values": [{"measurement": "inhibition of acrosin (in words)", "setting": "[4]", "result": "very active inhibitor"}]}]}
